Residues, ends and D or L forms follow the SMILES beside them.
Assays:
[1] = test system: islet-infiltrating CD8+ T cells of NOD mice; assay: IFN-γ recall assay of islet-infiltrating cells against peptide-pulsed K^d+ L cells; type: cell-based; settings: for positive mice (number/tested) / positive mice, percentage: 12-16-week-old NOD females, positive = IFN-γ^+CD8^+ cells >1.8%; for median percentage of IFN-γ^+CD8^+ cells / positive range of percentage of IFN-γ^+CD8^+ cells: 6 h peptide recall with brefeldin-A, intracellular IFN-γ staining
Excerpt: Peptides predicted to be restricted by the murine MHC Class I K^d molecule were identified using prediction algorithms and scanning of the whole murine protein sequence. Peptides were first tested in pools, and positive pools subsequently deconvoluted for reactivity against individual peptides. To this end, islets were isolated from 12-16-week-old NOD mice by collagenase digestion and put in culture with recombinant human IL-2 (Proleukin, Novartis) for 5 days as described (Brezar et al, Eur J Immunol 2012). Cells exiting the islets were subsequently collected and subjected to recall assays against K^d+ L antigen-presenting cells pulsed with the indicated peptides for 6 h in the presence of brefeldin-A, followed by intracellular staining for IFN-γ. The TUM, Ins B15-23 and IGRP 206-214 peptides were included as negative control and positive controls, respectively.
We performed experiments in 12-16-week-old NOD females by analyzing the reactivity of islet-infiltrating CD8^+ T cells to peptides derived from murine Ucn3 and Pcsk2 and predicted to be restricted by the murine MHC molecule K^d. A positive response was defined as a percentage of IFN-γ^+CD8^+ cells >1.8%, which was the median response observed for the negative control TUM peptide.

[2] = test system: circulating CD8^+ T cells; assay: ex-vivo combinatorial HLA-A2 MMr assay on PBMCs; type: cell-based, human; settings: for cognate naïve CD8^+ T-cell repertoire (validation of candidate epitope): frequency 1-50/10^6 CD8^+ T cells, clustered MMr staining, ≥50% of individuals; for frequency of MMr^+ CD8^+ T cells, in words: HLA-A2^+ recent-onset T1D and healthy subjects; for median frequency in peripheral blood: T1D patients
[3] = test system: pancreas-infiltrating cells of HLA-A2^+ T1D patients; assay: in-situ HLA-A2 MMr staining on pancreas sections; type: cell-based, human; settings: 2 HLA-A2^+ T1D cases, nPOD tissue sections
Method: In-situ staining was performed as described (Culina et al., 2018). Unfixed, frozen sections were dried for 2 h, loaded with 1 μg of MMrs overnight at 4° C., washed gently with phosphate-buffered saline and fixed in 2% paraformaldehyde for 10 min. After a further wash, endogenous peroxidase activity was blocked with 0.3% H2O2. Sections were then incubated serially with rabbit anti-phycoerythrin, horseradish peroxidase-conjugated swine anti-rabbit and 3,3′-diaminobenzidine tetrahydrochloride substrate (ThermoFisher). After a final wash, sections were counterstained with hematoxylin, dehydrated via sequential passages in 95-100% ethanol and xylene, mounted and analyzed using a Nikon Eclipse Ni microscope with NIS-Elements Analysis D software v4.40.

HLA-A*02:01 [4] = target: T1, HLA-A*02:01 (human); assay: one of the 18 HLA-eluted peptides with verified HLA-A2 binding; loaded on HLA-A2 multimers
T1 construct: HLA-A2 multimers were produced as in Leisner et al. 2008; also called HLA-A2; A2

HLA-A*02:01 [5] = target: T1, HLA-A*02:01; assay: LC-MS/MS of peptides eluted from W6/32-purified pHLA Class I complexes of beta cells; the HLA-A2 restriction in this row is predicted
Method: The HLA class I peptidome of the ECN90 β-cell line was obtained from 5 biological replicates. A single biological replicate was available for primary human islets. […] Beads were subsequently loaded on GELoader Tips (20 μl; ThermoFisher) and washed before elution of pHLA complexes with 10% acetic acid.
Eluted peptides and the associated HLA Class I heavy chain and β2-microglobulin obtained from 20×10⁶ cells were concentrated to 20 μl by vacuum centrifugation, acidified with 10 μl of 1% aqueous formic acid (Normapur) and loaded on C18 stage tips (ThermoFisher) prewashed with 100% methanol and equilibrated with acetonitrile (ACN)/0.1% formic acid in LC-MS grade water (aq. formic acid) 2:98 (v/v). After loading, the C18 stage tips were washed with ACN/0.1% aq. formic acid 2:98 (v/v) and peptides separated from the more hydrophobic HLA Class I heavy chain and β2-microglobulin species by eluting them with ACN/0.1% aq. formic acid 1:1 (v/v). […] For MS analysis, 5 μl of this peptide solution were used.
Peptides were loaded and separated by nanoflow HPLC (RSLC Ultimate 3000, ThermoFisher Scientific) on a reversed phase nanocolumn (C18 Acclaim PepMap 100, 50 cm length, 75 μm i.d. ThermoFisher Scientific) coupled on-line to a nanoESI Q Exactive mass spectrometer (ThermoFisher Scientific).

VFSCLNTAL [Ucn3 32-40, peptide derived from murine Ucn3, predicted to be restricted by K^d]
positive mice (number/tested) [1]: 8/12
positive mice, percentage [1]: 67%
median percentage of IFN-γ^+CD8^+ cells [1]: 1.9%
positive range of percentage of IFN-γ^+CD8^+ cells [1]: 1.9-3.3%

IGRP 206-214: positive control peptide in NOD recall assay (VYLKTNVFL; UniProt Q9Z186 206-214, looked up, fragment) [reference compound]
positive mice (number/tested) [1]: 13/13
positive mice, percentage [1]: 100%
median percentage of IFN-γ^+CD8^+ cells [1]: 12.5%
positive range of percentage of IFN-γ^+CD8^+ cells [1]: 4.5-25.3%

SCG5-009186-194: HLA-eluted peptide from SCG5-009 mRNA splice variant (FLSGAVNRL)
cognate naïve CD8^+ T-cell repertoire (validation of candidate epitope) ([2]; HLA-A2^+ healthy donors): validated
frequency of MMr^+ CD8^+ T cells, in words [2]: particularly high and clustered

TYFLLPLLL [Ucn3 5-13, peptide derived from murine Ucn3, predicted to be restricted by K^d]
positive mice (number/tested) [1]: 8/12
positive mice, percentage [1]: 67%
median percentage of IFN-γ^+CD8^+ cells [1]: 2.3%
positive range of percentage of IFN-γ^+CD8^+ cells [1]: 2.1-8.6%

LYDESCSSTL [Pcsk2 341-350, peptide derived from murine Pcsk2, predicted to be restricted by K^d]
positive mice (number/tested) [1]: 6/8
positive mice, percentage [1]: 75%
median percentage of IFN-γ^+CD8^+ cells [1]: 3.3%
positive range of percentage of IFN-γ^+CD8^+ cells [1]: 1.9-5.2%

CHGA344-352: HLA-eluted HLA-A2-restricted chromogranin A peptide (KMDQLAKEL)
cognate naïve CD8^+ T-cell repertoire (validation of candidate epitope) ([2]; HLA-A2^+ healthy donors): validated

UCN31-9: HLA-eluted HLA-A2-restricted urocortin-3 peptide (MLMPVHFLL)
cognate naïve CD8^+ T-cell repertoire (validation of candidate epitope) ([2]; HLA-A2^+ healthy donors): validated
frequency of MMr^+ CD8^+ T cells, in words [2]: particularly high and clustered

KIF1A1347-1355: HLA-eluted HLA-A2-restricted Kinesin Family Member 1A peptide (VLDTSVAYV)
cognate naïve CD8^+ T-cell repertoire (validation of candidate epitope) ([2]; HLA-A2^+ healthy donors): validated

IAPP15-17/IAPP5-10: peptide splice product from fusion of IAPP15-17/IAPP5-10 (VALKLQVFL)
donors with recognition ([2]; HLA-A2^+ healthy donors, screening): 1 of 6
median frequency in peripheral blood [2]: 1.6×10^−6
in-situ MMr staining of pancreas sections [3]: MMr^+ cells could be detected

GYRDINEIDI [Pcsk2 109-118, peptide derived from murine Pcsk2, predicted to be restricted by K^d]
positive mice (number/tested) [1]: 6/8
positive mice, percentage [1]: 50%
median percentage of IFN-γ^+CD8^+ cells [1]: 1.8%
positive range of percentage of IFN-γ^+CD8^+ cells [1]: 1.9-4.3%

SCG5186-195: HLA-eluted HLA-A2-restricted SCG5 (7B2) peptide (YLQGQRLDNV)
cognate naïve CD8^+ T-cell repertoire (validation of candidate epitope) ([2]; HLA-A2^+ healthy donors): validated

ZnT8186-184: positive control islet peptide (VAANIVLTV; UniProt Q8IWU4 186-194, looked up, fragment) [reference compound]
in-situ MMr staining of pancreas sections [3]: MMr^+ cells could be detected

CC(C)C[C@H](NC(=O)[C@H](CCC(=O)O)NC(=O)[C@@H](NC(=O)[C@H](CC(C)C)NC(=O)[C@H](Cc1ccccc1)NC(=O)[C@H](Cc1c[nH]cn1)NC(=O)[C@H](CC(N)=O)NC(=O)[C@@H](NC(=O)[C@@H](N)Cc1ccccc1)[C@@H](C)O)C(C)C)C(=O)O (H-FTNHFLVEL-OH; N-terminus and C-terminus assumed)
cognate naïve CD8^+ T-cell repertoire (validation of candidate epitope) ([2]; HLA-A2^+ healthy donors): validated

RYLEHVQAVI [Pcsk2 501-510, peptide derived from murine Pcsk2, predicted to be restricted by K^d]
positive mice (number/tested) [1]: 5/8
positive mice, percentage [1]: 63%
median percentage of IFN-γ^+CD8^+ cells [1]: 2.7%
positive range of percentage of IFN-γ^+CD8^+ cells [1]: 2.1-8.0%

ISL1276-284: HLA-eluted HLA-A2-restricted peptide of insulin gene enhancer protein ISL1 (GLQANPVEV)
cognate naïve CD8^+ T-cell repertoire (validation of candidate epitope) ([2]; HLA-A2^+ healthy donors): validated
median frequency in peripheral blood [2]: 7.2×10^−6
in-situ MMr staining of pancreas sections [3]: MMr^+ cells could be detected

KCNK16129-137: HLA-eluted HLA-A2-restricted KCNK16 peptide (ALLGIPLNV)
cognate naïve CD8^+ T-cell repertoire (validation of candidate epitope) ([2]; HLA-A2^+ healthy donors): validated

B1: insulin gene enhancer protein ISL1 276-284 peptide (peptide, UniProt P61371 276-284, looked up)
peptide: GLQANPVEV
notes: range 276-284; Synthetic peptide
binding result (HLA-A*02:01 [4]): binds

B2: KCNK16 129-137 peptide (peptide, UniProt Q96T55 129-137, looked up)
peptide: ALLGIPLNV
notes: range 129-137; Synthetic peptide
binding result (HLA-A*02:01 [4]): binds

B3: PCSK2 30-38 peptide (FTNHFLVEL) (peptide)
peptide: FTNHFLVEL
binding result (HLA-A*02:01 [5]): binds
